The term IC50 denotes the concentration at which inhibition is half-maximal.

This note sets out measurements from ChEMBL document CHEMBL5316270 (J Med Chem, 2023).

For series [1], the target named is T1, mTORC1 (Homo sapiens, UniProt P42345+Q8N122+Q9BVC4). It counts as cell-based, MDA-MB-468.
In series [2] the target is T1, mTORC1. The format is cell-based, MDA-MB-468. This is another data set of the same source.
The next series in a line: cells. It counts as cell-based. Conditions: Homo sapiens, MDA-MB-468.
For series [3], the system named is NCI-H2122. Put plainly: Antitumor activity against human NCI-H2122 cells harboring KRAS G12C mutation xenografted in Balb/c nude mouse assessed as reduction in tumor volume at 100 mg/kg,ip qd by caliper measurement analysis. The format is functional, organism-based.
Series [4] has as its system NCI-H2122. Put plainly: Antitumor activity against human NCI-H2122 cells harboring KRAS G12C mutation xenografted in Balb/c nude mouse assessed as reduction in tumor volume at 100 mg/kg,ip qd co-treated with RMC-627 at 10 mg/kg,ip qw by caliper measurement analysis. The format is functional, organism-based. Background: In xenograft studies the graft and the host belong to different species.

Series [5] is described as follows: Toxicity in Balb/c nude mouse xenografted with human NCI-H2122 cells harboring KRAS G12C mutation assessed as body weight loss at 100 mg/kg,ip qd co-treated with RMC-627 at 10 mg/kg,ip qw. Conditions: in vivo. The format is organism-based.
For series [6], the system named is NCI-H2122. The series can be described thus: Antitumor activity against human NCI-H2122 cells harboring KRAS G12C mutation xenografted in Balb/c nude mouse assessed as induction of apoptosis by measuring caspase-3 level at 100 mg/kg,ip qd co-treated with RMC-627 at 10 mg/kg,ip qw by immunostaining based microscopy. It counts as functional, organism-based.
For series [7], the system named is NCI-H2122. The series can be described thus: Antitumor activity against human NCI-H2122 cells harboring KRAS G12C mutation xenografted in Balb/c nude mouse assessed as induction of apoptosis by measuring caspase-3 level at 100 mg/kg,ip qd by immunostaining based microscopy. The format is functional, organism-based.
For series [8], the system named is Mus musculus. Put plainly: In vivo inhibition of mTORC1 in human MCF7 cells harboring PIK3CA […] mutation xenografted in Balb/c nude mouse assessed as inhibition of tumor p4EBP1 level at 5 mg/kg,po and measured upto 48 hrs by MSD analysis. The format is functional, organism-based.
The test system of series [9] is Mus musculus. The series can be described thus: In vivo inhibition of mTORC1 in human MCF7 cells harboring PIK3CA […] mutation xenografted in Balb/c nude mouse assessed as inhibition of tumor p4EBP1 level at 1 mg/kg,ip and measured at 4 hrs by MSD analysis. The format is functional, organism-based.
For series [10], the system named is Mus musculus. The series can be described thus: In vivo inhibition of mTORC1 in human MCF7 cells harboring PIK3CA […] mutation xenografted in Balb/c nude mouse assessed as inhibition of tumor p4EBP1 level at 1 mg/kg,ip and measured after 24 hrs by MSD analysis. The format is functional, organism-based.

The structures appear in SMILES notation. Calls of active or inactive are those of the source. The calls are words filed in the database; no cut-off is given here. Where only a bound is given, the exact number is not on record here.

Consider `CO[C@H]1C[C@@H]2CC[C@@H](C)[C@@](O)(O2)C(=O)C(=O)N2CCCC[C@H]2C(=O)O[C@H]([C@H](C)C[C@@H]2CC[C@@H](OC(=O)NCCOCCOCCOCCOCCOCCOCCOCCOCCC(=O)NCCCCn3nc(-c4ccc5oc(N)nc5c4)c4c(N)ncnc43)[C@H](OC)C2)C[C@@H](O)[C@H](C)/C=C(\C)[C@@H](O)[C@@H](OC)C(=O)[C@H](C)C[C@H](C)/C=C/C=C/C=C/1C`, for which the IC50 is 0.24 nM on mTORC1 [1], 1.3 nM at mTORC1 [2] and 13 nM in “cells”.

On to `C=CC(=O)N1CCN(c2nc(=O)n(-c3c(C)ccnc3C(C)C)c3nc(-c4c(O)cccc4F)c(F)cc23)[C@@H](C)C1` [SOTORASIB], for which the outcome in the series with NCI-H2122 [3] and in the series with NCI-H2122 [7] was inactive. Moreover, the outcome in the series with NCI-H2122 [4] and in the series with NCI-H2122 [6] was Active. Also, the Activity entry in series [5] is reported as “Non-Toxic”.

Regarding `CO[C@H]1C[C@@H]2CC[C@@H](C)[C@@](O)(O2)C(=O)C(=O)N2CCCC[C@H]2C(=O)O[C@H]([C@H](C)C[C@@H]2CC[C@@H](OCCO)[C@H](OC)C2)CC(=O)[C@H](C)/C=C(\C)[C@@H](O)[C@@H](OC)C(=O)[C@H](C)C[C@H](C)/C=C/C=C/C=C/1C` [EVEROLIMUS], the IC50 at mTORC1 [2] was more than 1000 nM. The inhibition entry in the series on Mus musculus [8] was “inactive”.

For `CO[C@H]1C[C@@H]2CC[C@@H](C)[C@@](O)(O2)C(=O)C(=O)N2CCCC[C@H]2C(=O)O[C@H]([C@H](C)C[C@@H]2CC[C@@H](OCCCCc3cn(CCOCCOCCOCCOCCOCCOCCOCCOCCC(=O)NCCCCn4nc(-c5ccc6oc(N)nc6c5)c5c(N(C)C)ncnc54)nn3)[C@H](OC)C2)CC(=O)[C@H](C)/C=C(\C)[C@@H](O)[C@@H](OC)C(=O)[C@H](C)C[C@H](C)/C=C/C=C/C=C/1C`, the concentration for half-maximal inhibition (IC50) against mTORC1 [2] was more than 1000 nM.

With `CC(C)n1nc(-c2ccc3oc(N)nc3c2)c2c(N)ncnc21`, the inhibition entry with Mus musculus [9] is “Active”. Also, the inhibition result in the series on Mus musculus [10] is “inactive”.

Take `CO[C@H]1C[C@@H]2CC[C@@H](C)[C@@](O)(O2)C(=O)C(=O)N2CCCC[C@H]2C(=O)O[C@H]([C@H](C)C[C@@H]2CC[C@@H](OC(=O)NCCOCCOCCOCCOCCOCCOCCOCCOCCC(=O)N3CCc4cc(Cn5nc(-c6ccc7oc(N)nc7c6)c6c(N)ncnc65)ccc4C3)[C@H](OC)C2)C[C@@H](O)[C@H](C)/C=C(\C)[C@@H](O)[C@@H](OC)C(=O)[C@H](C)C[C@H](C)/C=C/C=C/C=C/1C` [RMC-5552]: the IC50 at mTORC1 [1] came to 0.17 nM; on mTORC1 [2] it was 1.6 nM; in “cells” it was 35 nM.

Regarding `CC(C)n1nc(-c2cc3cc(O)ccc3[nH]2)c2c(N)ncnc21`, in “cells”, the IC50 came to 38 nM.

Regarding `CO[C@H]1C[C@@H]2CC[C@@H](C)[C@@](O)(O2)C(=O)C(=O)N2CCCC[C@H]2C(=O)O[C@H]([C@H](C)C[C@@H]2CC[C@@H](OC(=O)NCCOCCOCCOCCOCCOCCOCCOCCOCCC(=O)NCCCCn3nc(-c4ccc5oc(N)nc5c4)c4c(N)ncnc43)[C@H](OC)C2)C[C@@H](OC)[C@H](C)/C=C(\C)[C@@H](O)[C@@H](OC)C(=O)[C@H](C)C[C@H](C)/C=C/C=C/C=C/1C`, the values for the IC50 at mTORC1 [1], at mTORC1 [2] and in “cells” were 0.49 nM, 1.4 nM and 8.4 nM, respectively.

With `CO[C@H]1C[C@@H]2CC[C@@H](C)[C@@](O)(O2)C(=O)C(=O)N2CCCC[C@H]2C(=O)O[C@H]([C@H](C)C[C@@H]2CC[C@@H](OC(=O)NCCOCCOCCOCCOCCOCCOCCOCCOCCC(=O)NCCS(=O)(=O)c3ccc(C(=O)N4CCOc5ccc(-c6ccc(N)nc6)cc5C4)c(C)c3F)[C@H](OC)C2)C[C@@H](O)[C@H](C)/C=C(\C)[C@@H](O)[C@@H](OC)C(=O)[C@H](C)C[C@H](C)/C=C/C=C/C=C/1C`, the IC50 at mTORC1 [1] stood at 0.19 nM; against mTORC1 [2] it was 0.97 nM; in the series “cells”, 35 nM.
